# Assays:
# FADD−/− Jurkat cells = test: Necroptosis inhibition assay, TNF-α-induced necroptosis (CellTiter-Glo 2.0); assay type: cell-based, human; conditions: TNF-α 15 ng/mL; for Necroptosis inhibition assay (Rescue %) 1 μM: compound 1 μM; for Necroptosis inhibition assay (Rescue %) 10 μM: compound 10 μM
# Procedure, shortened: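 Necroptosis induced by 15 ng/mL TNF-α (final) for 20–24 h at 37 °C, after a 30 min room-temperature pretreatment of FADD-deficient Jurkat cells with 0.1, 1 or 10 μM compound. ATP-based luminescence gave viability, from which inhibition rate and cytotoxicity were derived.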
# MLKL [1] = target: T1, MLKL (Homo sapiens, UniProt Q8NB16); test: MLKL degradation assay in HepG2 cell line (western blot); assay type: cell-based; set-up: endogenous in cells; host or cells: HepG2 or HaCaT; conditions: cell line not given; for Degradation assay (Degradation %) 1 μM: compound 1 μM; for Degradation assay (Degradation %) 10 μM: compound 10 μM
# T1 sequence (Q8NB16 1-471): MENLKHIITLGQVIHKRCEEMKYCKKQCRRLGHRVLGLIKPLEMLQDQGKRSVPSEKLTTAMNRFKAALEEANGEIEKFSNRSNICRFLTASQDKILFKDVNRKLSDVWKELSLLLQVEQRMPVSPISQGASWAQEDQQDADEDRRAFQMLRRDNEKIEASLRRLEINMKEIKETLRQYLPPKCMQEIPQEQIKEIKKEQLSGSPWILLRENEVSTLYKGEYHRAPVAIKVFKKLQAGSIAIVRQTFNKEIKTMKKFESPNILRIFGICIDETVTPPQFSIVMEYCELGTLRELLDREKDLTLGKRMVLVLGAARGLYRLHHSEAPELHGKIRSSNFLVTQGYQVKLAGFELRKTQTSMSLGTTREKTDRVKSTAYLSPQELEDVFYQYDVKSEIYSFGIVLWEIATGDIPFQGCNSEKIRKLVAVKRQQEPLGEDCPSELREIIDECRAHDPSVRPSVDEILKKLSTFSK
# Protocol: MLKL degradation ability was evaluated in the following method.
# 1 mL of Human liver cancer cell line (HepG2 cell line) or human skin cell line (HaCaT cell line) was equally distributed into each well at 2.0×10^5 cells/mL in a 12-well cell culture plate. On the next day, the medium was replaced with a medium made so that the final concentration of test compound was 1 or 10 μM (1 mL/well), and incubated in 5% CO2, at 37° C. for 20-24 hours (Thermo scientific, Forma steri-cycle).
# For protein preparation after incubation, cells were washed with 1×TBST, and 60 μL of RIPA lysis buffer containing Halt™ Protease and Phosphatase Inhibitor Cocktail was dispensed into each well. After scraping the cells with a scraper, the cells were recovered, and the pallet was homogenized and reacted on ice for 30 minutes. After the cells were centrifuged at 13,000 rpm, 10 minutes, 4° C., the supernatant was transferred to a new E-tube. For protein quantification, after dispensing sample and BCA (0-4 mg/ml) in a 96 well plate, 100 μL of BCA was dispensed and reacted in a 37° C. incubator for 30 minutes. After measuring the absorbance (SpectraMax, M5e, 562 nm), the amount of the sample was adjusted with the same concentration of protein and 4× Laemmli sample buffer, DW, and reacted at 100° C. for 5 minutes.
# After assembling the MP TGX Precast Gel in the Mini-PROTEAN Tetra Cell, the same protein (10-15 μg) was added in an 8-10 μL volume per well, 1×Tris-Glycine Buffer was added, and loading was performed. After loading was completed, transfer was performed using Pierce G2 Fast Blotter and Pierce 1-Step Transfer Buffer. After completion of the transfer, 10 ml of SuperBlock™ Blocking Buffer was dispensed and reacted at room temperature for 10 minutes. 5% BSA containing the primary antibody was dispensed and reacted over night at 4° C. The next day, washing was performed three times with 1×TBST at room temperature for 10 minutes. 5% BSA containing the secondary antibody was dispensed and reacted at room temperature for 1 hour. Washing was performed three times with 1×TBST at room temperature for 10 minutes. The amount of protein expression was measured using chemiluminescence (LuminoGraph, ATTO).
# MLKL [2] = target: T1, MLKL; test: Measurement of binding affinity with MLKL receptor (competitive binding assay, Kd); set-up: made in house; host or cells: HEK 293 cell line (T7 phage in E. coli BL21-derived host is also described)
# Procedure, shortened: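 HEK 293-expressed, DNA-tagged MLKL; ligand beads blocked with biotin and SeaBlock/1% BSA/0.05% Tween 20/1 mM DTT buffer. Cpd from 111× DMSO stock, 0.9% DMSO final. Eluted kinase by qPCR → Kd.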
Degradation assay (Degradation %) 1 μM (MLKL [1]),Degradation assay (Degradation %) 10 μM (MLKL [1]),Kd (MLKL [2]),Structure (SMILES),Necroptosis inhibition assay (Rescue %) 1 μM (FADD−/− Jurkat cells),Necroptosis inhibition assay (Rescue %) 10 μM (FADD−/− Jurkat cells)
24.54%,19.24%,2.3 nM,"Nc1ncc(-c2cnn(C3CCN(CCCCCCNC(=O)C4CN(c5cccc6c5C(=O)N(C5CCC(=O)NC5=O)C6=O)C4)CC3)c2)nc1C(=O)O[C@@H](C(=O)Nc1ccc(F)cc1)c1ccccc1 (stereo partly drawn) [TDH-113, (R)-2-((4-fluorophenyl)amino)-2-oxo-1-phenylethyl 3-amino-6-(1-(1-(6-(1-(2-(2,6-dioxopiperidin-3-yl)-1,3-dioxoisoindolin-4-yl)azetidine-3-carboxamido)hexyl)piperidin-4-yl)-1H-pyrazol-4-yl)pyrazine-2-carboxylate]",24.96%,5.16%
8.68%,62.79%,0.83 nM,"Nc1ncc(-c2cnn(C3CCN(CCCCCCNC(=O)C4CN(c5ccc6c(c5)C(=O)N(C5CCC(=O)NC5=O)C6=O)C4)CC3)c2)nc1C(=O)O[C@@H](C(=O)Nc1ccc(F)cc1)c1ccccc1 (stereo partly drawn) [TDH-114, (R)-2-((4-fluorophenyl)amino)-2-oxo-1-phenylethyl 3-amino-6-(1-(1-(6-(1-(2-(2,6-dioxopiperidin-3-yl)-1,3-dioxoisoindolin-5-yl)azetidine-3-carboxamido)hexyl)piperidin-4-yl)-1H-pyrazol-4-yl)pyrazine-2-carboxylate]",13.68%,38.3%
10.31%,24.21%,6.3 nM,"Nc1ncc(-c2cnn(C3CCN(CCOCCOCCNC(=O)C4CN(c5cccc6c5C(=O)N(C5CCC(=O)NC5=O)C6=O)C4)CC3)c2)nc1C(=O)O[C@@H](C(=O)Nc1ccc(F)cc1)c1ccccc1 (stereo partly drawn) [TDH-115, (R)-2-((4-fluorophenyl)amino)-2-oxo-1-phenylethyl 3-amino-6-(1-(1-(2-(2-(2-(1-(2-(2,6-dioxopiperidin-3-yl)-1,3-dioxoisoindolin-4-yl)azetidine-3-carboxamido)ethoxy)ethoxy)ethyl)piperidin-4-yl)-1H-pyrazol-4-yl)pyrazine-2-carboxylate]",12.42%,3.59%
,8.02%,12 nM,"Nc1ncc(-c2cnn(C3CCN(C(=O)CCCCCNC(=O)CNc4cccc5c4C(=O)N(C4CCC(=O)NC4=O)C5=O)CC3)c2)nc1C(=O)O[C@@H](C(=O)Nc1ccc(F)cc1)c1ccccc1 (stereo partly drawn) [TDH-124, (R)-2-((4-fluorophenyl)amino)-2-oxo-1-phenylethyl 3-amino-6-(1-(1-(6-(2-((2-(2,6-dioxopiperidin-3-yl)-1,3-dioxoisoindolin-4-yl)amino)acetamido)hexanoyl)piperidin-4-yl)-1H-pyrazol-4-yl)pyrazine-2-carboxylate]",21.88%,27.22%
30.1%,69.02%,3.2 nM,"Nc1ncc(-c2cnn(C3CCN(CCOCCNC(=O)CNc4ccc5c(c4)C(=O)N(C4CCC(=O)NC4=O)C5=O)CC3)c2)nc1C(=O)O[C@@H](C(=O)Nc1ccc(F)cc1)c1ccccc1 (stereo partly drawn) [TDH-125, (R)-2-((4-fluorophenyl)amino)-2-oxo-1-phenylethyl 3-amino-6-(1-(1-(2-(2-(2-((2-(2,6-dioxopiperidin-3-yl)-1,3-dioxoisoindolin-5-yl)amino)acetamido)ethoxy)ethyl)piperidin-4-yl)-1H-pyrazol-4-yl)pyrazine-2-carboxylate]",21.27%,54.55%
31.29%,81.59%,9.2 nM,"Nc1ncc(-c2cnn(C3CCN(CCOCCNC(=O)C4CN(c5cccc6c5C(=O)N(C5CCC(=O)NC5=O)C6=O)C4)CC3)c2)nc1C(=O)O[C@@H](C(=O)Nc1ccc(F)cc1)c1ccccc1 (stereo partly drawn) [TDH-126, (R)-2-((4-fluorophenyl)amino)-2-oxo-1-phenylethyl 3-amino-6-(1-(1-(2-(2-(1-(2-(2,6-dioxopiperidin-3-yl)-1,3-dioxoisoindolin-4-yl)azetidine-3-carboxamido)ethoxy)ethyl)piperidin-4-yl)-1H-pyrazol-4-yl)pyrazine-2-carboxylate]",19.35%,58.35%
4.37%,43.64%,5.6 nM,"Nc1ncc(-c2cnn(C3CCN(CCOCCNC(=O)C4CN(c5ccc6c(c5)C(=O)N(C5CCC(=O)NC5=O)C6=O)C4)CC3)c2)nc1C(=O)O[C@@H](C(=O)Nc1ccc(F)cc1)c1ccccc1 (stereo partly drawn) [TDH-127, (R)-2-((4-fluorophenyl)amino)-2-oxo-1-phenylethyl 3-amino-6-(1-(1-(2-(2-(1-(2-(2,6-dioxopiperidin-3-yl)-1,3-dioxoisoindolin-5-yl)azetidine-3-carboxamido)ethoxy)ethyl)piperidin-4-yl)-1H-pyrazol-4-yl)pyrazine-2-carboxylate]",34.64%,49.65%
11%,68.52%,14 nM,"Nc1ncc(-c2cnn(C3CCN(CCOCCNC(=O)C4CCN(c5cccc6c5C(=O)N(C5CCC(=O)NC5=O)C6=O)CC4)CC3)c2)nc1C(=O)O[C@@H](C(=O)Nc1ccc(F)cc1)c1ccccc1 (stereo partly drawn) [TDH-128, (R)-2-((4-fluorophenyl)amino)-2-oxo-1-phenylethyl 3-amino-6-(1-(1-(2-(2-(1-(2-(2,6-dioxopiperidin-3-yl)-1,3-dioxoisoindolin-4-yl)piperidine-4-carboxamido)ethoxy)ethyl)piperidin-4-yl)-1H-pyrazol-4-yl)pyrazine-2-carboxylate]",26.22%,56.56%
32.68%,57.68%,7.1 nM,"Nc1ncc(-c2cnn(C3CCN(CCOCCNC(=O)C4CCN(c5ccc6c(c5)C(=O)N(C5CCC(=O)NC5=O)C6=O)CC4)CC3)c2)nc1C(=O)O[C@@H](C(=O)Nc1ccc(F)cc1)c1ccccc1 (stereo partly drawn) [TDH-129, (R)-2-((4-fluorophenyl)amino)-2-oxo-1-phenylethyl 3-amino-6-(1-(1-(2-(2-(1-(2-(2,6-dioxopiperidin-3-yl)-1,3-dioxoisoindolin-5-yl)piperidine-4-carboxamido)ethoxy)ethyl)piperidin-4-yl)-1H-pyrazol-4-yl)pyrazine-2-carboxylate]",49.22%,67.79%
58.3%,24.87%,11 nM,"Nc1ncc(-c2cnn(C3CCN(CCOCCNc4cccc5c4C(=O)N(C4CCC(=O)NC4=O)C5=O)CC3)c2)nc1C(=O)O[C@@H](C(=O)Nc1ccc(F)cc1)c1ccccc1 (stereo partly drawn) [TDH-130, (R)-2-((4-fluorophenyl)amino)-2-oxo-1-phenylethyl 3-amino-6-(1-(1-(2-(2-((2-(2,6-dioxopiperidin-3-yl)-1,3-dioxoisoindolin-4-yl)amino)ethoxy)ethyl)piperidin-4-yl)-1H-pyrazol-4-yl)pyrazine-2-carboxylate]",40.74%,27.69%

# — US20240252488A1 (KOREA RESEARCH INSTITUTE OF CHEMICAL TECHNOLOGY, priority 2020, published 2024)
